Tests used:
[1] = Weights of rats with focal cerebral ischemia; format: in vivo, rat; conditions: GM-1 group, in g (unit assumed)
Text: Weighing rats before modeling; preparing rat focal cerebral ischemia models through a modified Zea Longa method; weighing the rats on the first postoperative day; and weighing the rats after consecutively administrating a drug for 7 days.

[2] = system: rat focal cerebral ischemia models; assay: NSS grading (modified neurological severity scores, 16-point system) in rat focal cerebral ischemia models; format: in vivo; conditions: GM-1 positive drug control group
Procedure: Preparing rat focal cerebral ischemia models through a modified Zea Longa method; grading the rats which were fully conscious after operation according to a modified NSS grading standard (16-point system); arranging a sham operation group, a model group, a positive drug control group, a rLZ-8 high-dosage group (70 μg·kg^−1), a rLZ-8 middle-dosage group (35 μg·kg^−1) and a rLZ-8 low-dosage group (17.5 μg·kg^−1); and injecting intraperitoneally, twice a day, wherein the same volume of physiological saline was injected into the sham operation group and the model group, for consecutive 7 days. A positive drug in the positive drug control group was the GM-1.

ED-1 positive cells = assay: ED-1 positive cell expression in brain tissue (immunohistochemistry); format: in vivo, rat; conditions: GM-1 group; after modeling for 8 days
Procedure: The rLZ-8 high-dosage group, the rLZ-8 middle-dosage group and the rLZ-8 low-dosage group were provided and prepared by physiological saline to respectively have a concentration of 70 μg·ml^−1, 35 μg·ml^−1 and 17.5 μg·ml^−1. ED-1 antibody was provided by Wuhan Boster Biological Technology Co., Ltd., and PV-6000 two-step method immunohistochemical detection reagent was provided by Beijing Zhongshan Golden Bridge Biotechnology Co., Ltd.
The sham operation group, the model group, the positive drug control group, the rLZ-8 high-dosage group (70 μg·kg^−1), the rLZ-8 middle-dosage group (35 μg·kg^−1) and the rLZ-8 low-dosage group (17.5 μg·kg^−1) were provided.
After being embedded by conventional paraffin and sectioned, a brain tissue paraffin section was tested through an immunologic tissue chemical staining method to test an ED-1 positive cell expression thereof. […]

apoptotic cells = assay: Test of apoptosis in brain tissue by TUNEL kit; format: in vivo, rat; conditions: GM-1 group; after modeling for 8 days
Procedure: The rLZ-8 high-dosage group, the rLZ-8 middle-dosage group and the rLZ-8 low-dosage group were provided and prepared by physiological saline to respectively have a concentration of 70 μg·ml^−1, 35 μg·ml^−1 and 17.5 μg·ml^−1. TUNEL kit.
The sham operation group, the model group, the positive drug control group, the rLZ-8 high-dosage group (70 μg·ml^−1), the rLZ-8 middle-dosage group (35 μg·ml^−1) and the rLZ-8 low-dosage group (17.5 μg·ml^−1) were provided.
After being embedded by conventional paraffin and sectioned, a brain tissue paraffin section was processed according to instructions of the TUNEL kit. […]

monosialotetrahexosyl ganglioside sodium injection [GM-1]
Weights of rats ([1]; 0th day after modeling (before modeling)): 266.17 ± 21.21 | Weights of rats ([1]; 1st day after modeling): 246.17 ± 21.99 | Weights of rats ([1]; 8th day after modeling, drug for 7 days): 251.17 ± 40.31 | NSS grading ([2]; 1st day): 4.33 ± 1.30 | NSS grading ([2]; 2nd day): 3.92 ± 1.38 | NSS grading ([2]; 3rd day): 3.58 ± 1.24 | NSS grading ([2]; 4th day): 2.75 ± 1.09 | NSS grading ([2]; 5th day): 2.50 ± 1.00 | NSS grading ([2]; 6th day): 2.58 ± 1.08 | NSS grading ([2]; 7th day): 2.41 ± 1.00 | NSS grading ([2]; i.p. twice a day, 0th day, n=12): 4.75 ± 1.30 | ED-1 positive cell number (ED-1 positive cells): 13.87 ± 2.39 | Apoptotic cell number (TUNEL) (apoptotic cells): 23.10 ± 2.47

Reference: patent publication US20160199439A1, “Application of recombinant immunoregulatory protein of ganoderma lucidum in preparation of drug for treating focal cerebral ischemia” (priority 2013, published 2016)
